In patent US6121055A, “Methods and devices for conducting specific binding assays” (priority 1995, dated 2000):
Where a name gives a salt, the structure may show the parent alone.

Tests used:
[1] = cited from earlier work; for SOLUBILITY (parts H2O): Table 1, numeric; for SOLUBILITY (in words): Table 1, water; for SOL. IN PARTS H2O: Table 2
anti-digoxin antibody = assay: Enzyme immunoassay for digoxin; type: binding, rabbit
Source text: An enzyme-labelled digoxin assay using the method of the present invention is adapted from a commercial digoxin kit (Immunotech, Allston, Mass.). The only changes in reagents are the inclusion of 20% sorbitol in the color developer solution, and the substitution of 50 microliters of Tachisorb-R (Behring Diagnostics, La Jolla, Calif.) for the 500 microliters of precipitating solution (goat-anti rabbit IgG) provided with the kit.
In two mL, screw-top microcentrifuge tubes (Sarstedt, Princeton, N.J.), 1 mL of sorbitol-color developer is dispensed, then overlaid with 0.4 mL of dibutyl phthalate. A 200 microliter assay mixture is prepared by adding 100 microliters of Tachisorb-R, 25 microliters of digoxin-enzyme (alkaline phosphatase) conjugate, 25 microliters of sample (serum-based standards), and 50 microliters of antibody solution. The assay is incubated at room temperature for 15 minutes, centrifuged two minutes at 10,000×g, and further incubated one hour for color development.
Color is measured at 400 nm in a Shimadzu Model UV-160 spectrophotometer. Because of the opacity of the polypropylene tubes, results for each tube are corrected for nonspecific absorbance at 500 nm.

[2] = test system: antisera to synthetic hTGF-a (1-50); assay: RIA for human TGF-a using antisera recognizing the complete, bioactive synthetic hormone; type: binding, rabbit
Protocol: (D) RIA for Human TGF-a Using Antisera Recognizing the Complete, Bioactive Synthetic Hormone Synthesis of hTGF-a (1-50) Peptide and Immunization:
The sequence of human TGF-a as determined by DeRynck et al. (Cell 38:287-297, 1985) was used to synthesize the low molecular weight form of the hormone (residues 1-50) using an automated instrument (Biosearch). The resultant peptide was used to immunize rabbits repeatedly using 0.5 mg of peptide at multiple sites.
The assay used reference standards and radio-iodinated tracer prepared from purified, bioactive synthetic rat TGF-alpha (Peninsula Laboratories, Belmont, Calif.). Label cocktail was prepared by mixing, in 1.5 L total volume, 300 L 10×buffer (0.5 M Hepes, 2 mg/L BSA, 0.2% sodium azide), 600 L 10% nonidet P-40 (Shell Oil Co.), 580 L distilled water, and 30 L of labeled peptide (rTGF-a, 800,000 CPM). The antibody suspension was prepared essentially as described in (A) above. To each 0.4 L tube containg 0.25-0.3 L cushions of butyl phthalate was added 25 L of label cocktail, 50 L of sample, and 25 L of antibody suspension. Where indicated, 10 L of 1M DTT (freshly dissolved in 0.5M sodium bicarbonate) was added to each assay mixture. After mixing, the tubes were incubated overnight at 4° C., then processed as described in (A) except that the detection instrument was a gamma counter (Abbott Model 200).

[3] = test system: anti-fragment antisera (rat TGF-a c-terminal peptide); assay: TGF-a RIA: predispensed reactants & methyl cinnamate cushions; type: binding, rabbit
Protocol: (§1) All assays employed as assay vessels 0.4 L microcentrifuge tubes containing 0.25-0.3 L of cushion material. Labeled peptide was produced by chloramine Tiodination (specific activity ranged from 200-500 Ci/g). Unless otherwise specified, all solid phases were prepared using S. aureus suspensions. Centrifugations were for 30-60 seconds in a microcentrifuge at approximately 10,000×g.
(§2) (B) RIA Using Anti-Fragment Antisera and Bioactive Syntheticpeptide as Tracer and Reference Standard, with Methylcinnamate Cushions and Assay Reactants Predispensed.
(§3) Trans-methyl cinnamate (Table 1, item 11, Aldrich Chemical Co., St. Louis, Mo.) was melted by brief heating in a microwave oven just prior to dispensing into assay vessels. The cushion solidified spontaneously at room temperature. The solid phase was prepared as in (A) above in double strength assay buffer (including 4% NP-40 nonionic detergent). This suspension was stable at 4° C. for at least one year. Label cocktail (1.5 L) was prepared using 0.3 L 10×assay buffer (minus nonionic detergent), 0.6 L 10% NP-40, 0.58 L distilled water, and 30 L label concentrate (600,000 CPM) prepared from bioactive synthetic rat TGF-alpha (res. 1-50).
(§4) Into each assay was loaded 50 L of reference standard sample (bioactive, synthetic rat TGF-alpha, res. 1-50), 25 L of label cocktail, followed by 25 L of solid phase suspension. Where indicated, all assay reactants were predispensed and equilibrated for at least 3 days at 4 C prior to initiation of the assay by sample addition and mixing. After the indicated incubation periods, assay vessels were centrifuged and counted using radiation shields (FIG. 3, lacking disk 52) in an gamma counter (Abbott Model 200).

[4] = test system: anti-fragment antisera (rat TGF-a c-terminal peptide); assay: TGF-a RIA: bioactive peptides & methyl cinnamate cushions; type: binding, rabbit
Protocol: as §1, §2, §3, §4
Two temperature and mixing treatments were compared with four incubation times. One treatment consisted of incubating at 32° C., just below the melting temperature of the cushion, and mixing at 15 minute intervals. The second treatment consisted of incubating at 40° C., above the melting temperature of the cushion, with mixing only at initiation of incubation (prior to warming). Both assays yielded low nonspecific binding, high specific binding, and high competition with reference standards, even after only 30 minutes of incubation.

[5] = REDUCED WITH DTT, 1.25 nM in assay

Molecule: CCCCOC(=O)C=Cc1ccccc1 [BUTYL CINNAMATE]
- SOLUBILITY (parts H2O) [1]: 200 parts H2O

Molecule: CCCCOC(=O)CC(O)(CC(=O)OCCCC)C(=O)OCCCC [BUTYL CITRATE]
- SOLUBILITY (in words) [1]: INSOL

Molecule: CCCCOC(=O)c1ccccc1C(=O)OCCCC [DIBUTYL PHTHALATE]
- SOLUBILITY (parts H2O) [1]: 2500 parts H2O

Molecule: CCOC(=O)[C@H](O)[C@@H](O)C(=O)OCC [DIETHYL L-TARTRATE]
- SOLUBILITY (in words) [1]: slightly

Molecule: CCOC(=O)/C=C\C(=O)OCC [DIETHYL MALEATE]
- SOLUBILITY (in words) [1]: INSOL

Molecule: CCOC(=O)CC(=O)OCC [DIETHYL MALONATE]
- SOLUBILITY (parts H2O) [1]: 50 parts H2O

Molecule: COC(=O)C(=O)OC [DIMETHYL OXALATE]
- SOLUBILITY (parts H2O) [1]: 17 parts H2O

Molecule: COC(=O)c1ccccc1C(=O)OC [DIMETHYL PHTHALATE]
- SOLUBILITY (parts H2O) [1]: 232 parts H2O

Molecule: COC(=O)CCC(=O)OC [DIMETHYL SUCCINATE]
- SOLUBILITY (parts H2O) [1]: 120 parts H2O

Molecule: CCOC(=O)CC(C)=O [ETHYL ACETOACETATE]
- SOLUBILITY (parts H2O) [1]: 35 parts H2O

Molecule: CCOC(=O)CC(=O)c1ccccc1 [ETHYL BENZOYLACETATE]
- SOLUBILITY (in words) [1]: INSOL

Molecule: CCOC(=O)C=Cc1ccccc1 [ETHYL CINNAMATE]
- SOLUBILITY (in words) [1]: INSOL

Molecule: CCOC(=O)CC(=O)C(=O)OCC [ETHYL OXALACETATE]
- SOLUBILITY (in words) [1]: INSOL

Molecule: CCOC(=O)c1ccccc1O [ETHYL SALICYLATE]
- SOLUBILITY (in words) [1]: SLIGHTLY

Molecule: [Br-].[Li+] [LITHIUM BROMIDE]
- SOL. IN PARTS H2O [1]: .6 PARTS H2O

Molecule: [Cl-].[Li+] [LITHIUM CHLORIDE]
- SOL. IN PARTS H2O [1]: 1.3 PARTS H2O

Molecule: COC(=O)c1ccccc1 [METHYL BENZOATE]
- SOLUBILITY (in words) [1]: INSOL

Molecule: COC(=O)/C=C/c1ccccc1 [METHYL CINNAMATE]
- SOLUBILITY (in words) [1]: ALMOST INSOL

Molecule: COC(=O)c1ccco1 [METHYL FUROATE]
- SOLUBILITY (in words) [1]: SLIGHTLY

Molecule: COC(=O)c1ccccc1O [METHYL SALICYLATE]
- SOLUBILITY (parts H2O) [1]: 1500 parts H2O

Molecule: CC(O)CO (stereo not drawn) [PROPYLENE GLYCOL]
- miscibility ([1]; Table 2 comment): MISC WITH H2O, CHCL3

Molecule: C[C@H]1O[C@@H](O[C@H]2[C@@H](O)C[C@H](O[C@H]3[C@@H](O)C[C@H](O[C@H]4CC[C@@]5(C)[C@H](CC[C@@H]6[C@@H]5C[C@@H](O)[C@]5(C)[C@@H](C7=CC(=O)OC7)CC[C@]65O)C4)O[C@@H]3C)O[C@@H]2C)C[C@H](O)[C@@H]1O [digoxin]
- ABSORBANCE AT 400 nm (corrected) (anti-digoxin antibody; sample 1.0): 150
- ABSORBANCE AT 400 nm (corrected) (anti-digoxin antibody; sample 2.0): 100
- ABSORBANCE AT 400 nm (corrected) (anti-digoxin antibody; sample 4.0): 80

Molecule: BIOLOGICAL TGFALPHA: BIOLOGICAL TGFALPHA, PARTIALLY PURIFIED FROM CULTURE FLUIDS (A375 CELLS)
- PERCENTAGE OF MAXIMAL BINDING, corrected for nonspecific binding [2, 5]: 63.3%
- PERCENTAGE OF MAXIMAL BINDING, corrected for nonspecific binding ([2]; UNREDUCED, 1.25 nM in assay): 89.7%

Molecule: RTGF, BIOACTIVE: purified, bioactive synthetic rat TGF-alpha (Peninsula Laboratories)
- PERCENTAGE OF MAXIMAL BINDING, corrected for nonspecific binding ([2]; REDUCED WITH DTT, 0.15 nM in assay): 93.8%
- PERCENTAGE OF MAXIMAL BINDING, corrected for nonspecific binding ([2]; REDUCED WITH DTT, 0.32 nM in assay): 87.1%
- PERCENTAGE OF MAXIMAL BINDING, corrected for nonspecific binding ([2]; REDUCED WITH DTT, 0.62 nM in assay): 79.9%
- PERCENTAGE OF MAXIMAL BINDING, corrected for nonspecific binding [2, 5]: 74.4%
- PERCENTAGE OF MAXIMAL BINDING, corrected for nonspecific binding ([2]; REDUCED WITH DTT, 2.50 nM in assay): 64.9%
- PERCENTAGE OF MAXIMAL BINDING, corrected for nonspecific binding ([2]; REDUCED WITH DTT, 5.00 nM in assay): 47.3%
- PERCENTAGE OF MAXIMAL BINDING, corrected for nonspecific binding ([2]; UNREDUCED, 0.15 nM in assay): 83.2%
- PERCENTAGE OF MAXIMAL BINDING, corrected for nonspecific binding ([2]; UNREDUCED, 0.32 nM in assay): 77.3%
- PERCENTAGE OF MAXIMAL BINDING, corrected for nonspecific binding ([2]; UNREDUCED, 0.62 nM in assay): 68.5%
- PERCENTAGE OF MAXIMAL BINDING, corrected for nonspecific binding ([2]; UNREDUCED, 1.25 nM in assay): 58.5%
- PERCENTAGE OF MAXIMAL BINDING, corrected for nonspecific binding ([2]; UNREDUCED, 2.50 nM in assay): 54.0%
- PERCENTAGE OF MAXIMAL BINDING, corrected for nonspecific binding ([2]; UNREDUCED, 5.00 nM in assay): 45.7%

Molecule: synthetic rat TGF-alpha: bioactive, synthetic rat TGF-alpha, res. 1-50
- label bound, CPM ([3]; 2.5 nM sample competition, total CPM = 7872): 642 CPM
- % OF MAX. BOUND ([3]; 2.5 nM sample, 120 minutes, 37 C): 48.6%
- LABEL BOUND ([3]; 2.5 nM sample, 120 minutes, 37 C, N = 6): 8.2%
- % bound with 0.3 nM sample ([4]; 30 minutes, 32 C): 21.9%
- % bound with 10 nM sample ([4]; 30 minutes, 32 C): 5.6%
- % bound with 0.3 nM sample ([4]; 30 minutes, 40 C): 23.8%
- % bound with 10 nM sample ([4]; 30 minutes, 40 C): 6.9%
- % bound with 0.3 nM sample ([4]; 60 minutes, 32 C): 25.2%
- % bound with 10 nM sample ([4]; 60 minutes, 32 C): 6.2%
- % bound with 0.3 nM sample ([4]; 60 minutes, 40 C): 29.4%
- % bound with 10 nM sample ([4]; 60 minutes, 40 C): 7.1%
- % bound with 0.3 nM sample ([4]; 90 minutes, 32 C): 26.2%
- % bound with 10 nM sample ([4]; 90 minutes, 32 C): 6.4%
- % bound with 0.3 nM sample ([4]; 90 minutes, 40 C): 32.9%
- % bound with 10 nM sample ([4]; 90 minutes, 40 C): 7.6%
- % bound with 0.3 nM sample ([4]; 120 minutes, 32 C): 25.6%
- % bound with 10 nM sample ([4]; 120 minutes, 32 C): 6.1%
- % bound with 0.3 nM sample ([4]; 120 minutes, 40 C): 35.8%
- % bound with 10 nM sample ([4]; 120 minutes, 40 C): 7.6%
